Measurements: patent EP3006939A1, “Histidine-rich Glycoprotein as a marker for hepatic Farnesoid X receptor activation” (Gilead Sciences, Inc., priority 2014, dated 2016)
Values joined by “and” are separate entries in the source; they are usually repeats but may differ in a detail not shown here. Equal values may be shown once. “Also recorded” adds a separate entry of the source. Read-outs that look alike come from different tables or passages of the source.

Experiments:
[1] = tested on: HepaRG cells; assay: Microarray experiment, genome wide mRNA array analysis; format: cell-based, human; settings: 1 µM, 24 hours, vs DMSO vehicle; for Fold changes to "DMSO", TBP mRNA: control gene
Protocol: HepaRG cells were obtained plated from Biopredic International (# HPR203-MW96, Rennes, France) and cultivated in 6-well plates using the media and protocol supplied by the manufacturer. Cells were cultivated in induction medium (Biopredic International) with 1 µM of PX20350 (E. Hambruch et al., J. Pharmacol. Exp. Ther. 2012, 343, 556) diluted from a 20 mM stock solution in DMSO or DMSO as a vehicle control for 24 hours. Total RNA was isolated following the instructions of the RNeasy 96 RNA isolation kit (Qiagen, Hilde, Germany) and 200 ng total RNA used for a genome wide mRNA array analysis done as a fee for service at the Genomics & Pro-teomics Core Facility of the German Research Facility using the human Sentrix-6 V3 (4213572043) array from Illumina and standard experimental kits and protocols supplied by the manufacturer (Illumina Inc. San Diego U.S.A.).
This upregulation was similar to that (2.7 fold) of the known direct FXR target gene NR0B2 (SHP, Small heterodimer partner). In comparison, TBP mRNA (TATA box binding protein) was not changed in relative abundance (Table 1).

[2] = tested on: HepG2-FXR5 cells; assay: Detection of secreted HRG in cell supernatant by Ni-NTA agarose collection and Western blot; format: cell-based, human; settings: 1 µM, 48 hours, vs DMSO, Western blot
Protocol: HepG2-FXR5 cells (described in U. Deuschle et al., PLoS One. 2012, 7, e43044) were cultivated in T75 flasks in RPMI medium supplemented with 0,2% BSA, 2 mM L-Alanyl-L-Glutamine (Sigma-Aldrich, Munich, Germany) and 1x Insulin-Transferrin-Selenium (#51500-056, Life Technolgies, Carlsbad, USA). Each 10 ml supernatant from cells grown in presence of 1 µM PX20606 or DMSO as vehicle for 48 hours were mixed with 100 µL Ni-NTA agarose slurry (#1018240, Qiagen, Hilden, Germany) for 1 h, the slurry was collected by centrifugation and after 3 washes with 10 mL 1xPBS resuspended in 100 µL SDS sample buffer. Western blot was performed (as described in U. Deuschle et al., PLoS One 2012, 7, e43044) and HRG detected using polyclonal mouse-anti human HRG antibodies (ab67807, Abcam, Cambridge, UK).

[3] = tested on: HepG2-FXR5 cells; assay: Induction of HRG transcription, RT-qPCR normalized to TBP; format: cell-based; settings: Homo sapiens, 24 hours
Protocol: (§1) Huh7 (# JCRB0403) cells were obtained from the Health Science Research Resources Bank, Osaka, Japan. Cells were cultivated in MEM containing 8.6% FCS supplemented with 2 mM L-Alanyl-L-Glutamine (all purchased via Sigma-Aldrich, Munich, Germany) in presence of 1 µM of PX20606 or DMSO as a vehicle for 16 hours. Total RNA from cells grown in 96 well tissue plates (Huh7, HepaRG and 3D human liver microtisues) were isolated following the instructions of the RNeasy 96 RNA isolation kit (Qiagen, Hilde, Germany) and cDNA's were synthesized from 1/25th of the isolated total RNA from one 96 well using Superscript II reverse Transcriptase (Life Technologies, Carlsbad, U.S.A.). Quantitative PCR was performed and analyzed using Absolute QPCR Rox Mix (Life Technologies, Carlsbad, U.S.A.) and a 384-format ABI 7900HT Sequence Detection System (Applied Biosystems, Darmstadt, Germany). Gene expression was expressed in arbitrary units and normalized relative to the housekeeping gene TATA box binding protein (TBP). […]
HepG2-FXR5 cells (described in U. Deuschle et al., PLoS One. 2012, 7, e43044) were cultivated in 96 well plates in RPMI medium supplemented with 8.6% FCS and supplemented with 2 mM L-Alanyl-L-Glutamine (all purchased via Sigma-Aldrich, Munich, Germany). Isolation of total RNA followed by quantitative qPCR was done as described in Example 2.

[4] = tested on: human primary Upcyte® Hepatocytes; assay: as above; format: cell-based; settings: Hepatocyte, 24 hours
Protocol: as §1, with “(TBP). The TBP normalized mRNA levels were plotted for HRG and SHP in Figure 1 (number of replicates n = 6).” for “(TBP).”
Upcyte® hepatocytes (Cat# UH0-000-KA00 donor 10-03) derived from primary hepatocytes of a donor were cultivated in 96 well plates in high performance medium (Medicyte, Heidel-berg, Germany). Isolation of total RNA followed by quantitative qPCR was done as described in Example 2.

[5] = target: T1, human FXR (Homo sapiens, UniProt Q96RI1); assay: Luciferase reporter assay with human HRG promoter fragment in Huh7 cells co-transfected with an FXR expression plasmid; format: cell-based; settings: FXR exogenously expressed, 1 µM, 16 h
T1 sequence (Q96RI1 1-486): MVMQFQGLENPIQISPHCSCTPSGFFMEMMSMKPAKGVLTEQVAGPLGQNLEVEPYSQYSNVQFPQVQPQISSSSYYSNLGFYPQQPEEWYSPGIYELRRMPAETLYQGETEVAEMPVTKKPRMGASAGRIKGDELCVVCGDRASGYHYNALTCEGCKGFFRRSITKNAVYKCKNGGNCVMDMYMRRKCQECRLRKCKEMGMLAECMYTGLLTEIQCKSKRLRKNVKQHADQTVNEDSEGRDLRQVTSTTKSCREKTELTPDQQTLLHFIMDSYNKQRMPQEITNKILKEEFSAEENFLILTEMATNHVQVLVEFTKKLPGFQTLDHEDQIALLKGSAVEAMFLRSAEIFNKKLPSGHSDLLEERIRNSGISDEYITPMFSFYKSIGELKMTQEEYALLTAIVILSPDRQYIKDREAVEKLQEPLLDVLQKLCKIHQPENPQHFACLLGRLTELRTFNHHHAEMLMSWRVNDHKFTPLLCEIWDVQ
Source text: A human HRG promoter fragment was cloned as a Xhol-Hindlll fragment (from position -1,973 till +8 with respect to the mRNA starting nucleotide at +1) using the oligonucleotides […] (SEQ ID No. 10) and […] (SEQ ID No. 11) into the Xhol and Hindlll sites of pGL2basic (Promega, Madison, U.S.A.). The IR1 and ER2 sites were mutated using the primers of Table 3. Table 3: Primer sequences
The reporter plasmids pGL2-FXR-RE (FXR-RE), pGL2-PHRG (wt), pGL2-PHRG-IR1mut (IR1mut) and pGL2-PHRG-ER2mut (ER2mut) and pGL2-PHRG-IR1/ER2 (DM) (each 50 ng/well), were co-transfected with pTRex-Dest30-hFXR (20 ng/well) and pCMV-RL (5 ng/well, constitutively expressing the Renilla luciferase under control of a CMV promotor as an internal control) into Huh7 cells using lipofection with Polyethylenimine and cultivated in presence or absence of 1 µM of the FXR agonist PX20606 or DMSO as a vehicle control for 16 h followed by cell lysis and determination of luciferase activities as described in U. Deuschle et al., PLoS One 2012, 7, e43044.

[6] = tested on: Huh7 human hepatoma cells; assay: Induction of HRG and SHP mRNAs, RT-qPCR normalized to TBP; format: cell-based; settings: Huh-7, 16 hours
Protocol: Huh7 (# JCRB0403) cells were obtained from the Health Science Research Resources Bank, Osaka, Japan. Cells were cultivated in MEM containing 8.6% FCS supplemented with 2 mM L-Alanyl-L-Glutamine (all purchased via Sigma-Aldrich, Munich, Germany) in presence of 1 µM of PX20606 or DMSO as a vehicle for 16 hours. Total RNA from cells grown in 96 well tissue plates (Huh7, HepaRG and 3D human liver microtisues) were isolated following the instructions of the RNeasy 96 RNA isolation kit (Qiagen, Hilde, Germany) and cDNA's were synthesized from 1/25th of the isolated total RNA from one 96 well using Superscript II reverse Transcriptase (Life Technologies, Carlsbad, U.S.A.). Quantitative PCR was performed and analyzed using Absolute QPCR Rox Mix (Life Technologies, Carlsbad, U.S.A.) and a 384-format ABI 7900HT Sequence Detection System (Applied Biosystems, Darmstadt, Germany). Gene expression was expressed in arbitrary units and normalized relative to the housekeeping gene TATA box binding protein (TBP). The TBP normalized mRNA levels were plotted for HRG and SHP in Figure 1 (number of replicates n = 6). Table 2: Primer and probe sequences.

[7] = read-out: HRG mRNA upregulated compared to DMSO
[8] = read-out: known direct FXR target gene (SHP mRNA) upregulated compared to DMSO

Structure (SMILES)	Fold changes to "DMSO", NR0B2 (SHP) mRNA [1] [fold]	Fold changes to "DMSO", HRG mRNA ([1]; 1440 min)	Fold changes to "DMSO", TBP mRNA [1]	Fold changes to "DMSO", TBP mRNA ([1]; 1440 min)	amount of secreted HRG [2]	fold induction at 1 µM [3, 7]	fold induction at 1 µM [3, 8]	fold induction at 1 µM [4, 7]	fold induction at 1 µM [4, 8]	activity of HRG promoter with mutated ER-2 site, luciferase reporter [5]	activity of HRG promoter with mutated IR-1 site, luciferase reporter [5]	activity of HRG promoter (wt, -1973 to +8) luciferase reporter ([5]; vs DMSO)	fold induction at 1 µM [6, 7]	fold induction at 1 µM [6, 8]
CN(Cc1ccc(C(=O)O)cc1)c1ccc(OCc2c(-c3c(Cl)cccc3Cl)noc2C2CC2)nc1C(F)(F)F [PX20350]	2.7	2 fold and 2.0 fold	not changed	1.0	–	–	–	–	–	–	–	–	–	–
O=C(O)c1ccc(C2CC2c2ccc(OCc3c(-c4c(Cl)cccc4Cl)noc3C3CC3)cc2Cl)cc1 (centres unmarked) [PX20606, 4-(2-(2-chloro-4-((5-cyclopropyl-3-(2,6-dichlorophenyl)isoxazol-4-yl)methoxy)phenyl)cyclopropyl)benzoic acid]	–	–	–	–	increased; also recorded: up-regulated	~20	~6	~11	~10	loss of FXR/FXR agonist responsitivity	reduce the activity	active	~3.5	~4
